The record followed here is ChEMBL document CHEMBL1152560, “Substituted 2-arylbenzothiazoles as kinase inhibitors: hit-to-lead optimization” (Bioorg Med Chem, 2009).

In assay [1] the target is Tyrosine-protein kinase Fes/Fps (Homo sapiens) (UniProt P07332). The experiment in a line: Residual activity of FES at 0.1 uM by microplate scintillation counting.
Assay [2] deals with Mitogen-activated protein kinase kinase kinase kinase 4 (Homo sapiens) (UniProt O95819). The experiment in a line: Residual activity of MAP4K4 at 1 uM by microplate scintillation counting.
Chain of Mitogen-activated protein kinase kinase kinase kinase 4 (Homo sapiens) (O95819 2-1239 limits assumed): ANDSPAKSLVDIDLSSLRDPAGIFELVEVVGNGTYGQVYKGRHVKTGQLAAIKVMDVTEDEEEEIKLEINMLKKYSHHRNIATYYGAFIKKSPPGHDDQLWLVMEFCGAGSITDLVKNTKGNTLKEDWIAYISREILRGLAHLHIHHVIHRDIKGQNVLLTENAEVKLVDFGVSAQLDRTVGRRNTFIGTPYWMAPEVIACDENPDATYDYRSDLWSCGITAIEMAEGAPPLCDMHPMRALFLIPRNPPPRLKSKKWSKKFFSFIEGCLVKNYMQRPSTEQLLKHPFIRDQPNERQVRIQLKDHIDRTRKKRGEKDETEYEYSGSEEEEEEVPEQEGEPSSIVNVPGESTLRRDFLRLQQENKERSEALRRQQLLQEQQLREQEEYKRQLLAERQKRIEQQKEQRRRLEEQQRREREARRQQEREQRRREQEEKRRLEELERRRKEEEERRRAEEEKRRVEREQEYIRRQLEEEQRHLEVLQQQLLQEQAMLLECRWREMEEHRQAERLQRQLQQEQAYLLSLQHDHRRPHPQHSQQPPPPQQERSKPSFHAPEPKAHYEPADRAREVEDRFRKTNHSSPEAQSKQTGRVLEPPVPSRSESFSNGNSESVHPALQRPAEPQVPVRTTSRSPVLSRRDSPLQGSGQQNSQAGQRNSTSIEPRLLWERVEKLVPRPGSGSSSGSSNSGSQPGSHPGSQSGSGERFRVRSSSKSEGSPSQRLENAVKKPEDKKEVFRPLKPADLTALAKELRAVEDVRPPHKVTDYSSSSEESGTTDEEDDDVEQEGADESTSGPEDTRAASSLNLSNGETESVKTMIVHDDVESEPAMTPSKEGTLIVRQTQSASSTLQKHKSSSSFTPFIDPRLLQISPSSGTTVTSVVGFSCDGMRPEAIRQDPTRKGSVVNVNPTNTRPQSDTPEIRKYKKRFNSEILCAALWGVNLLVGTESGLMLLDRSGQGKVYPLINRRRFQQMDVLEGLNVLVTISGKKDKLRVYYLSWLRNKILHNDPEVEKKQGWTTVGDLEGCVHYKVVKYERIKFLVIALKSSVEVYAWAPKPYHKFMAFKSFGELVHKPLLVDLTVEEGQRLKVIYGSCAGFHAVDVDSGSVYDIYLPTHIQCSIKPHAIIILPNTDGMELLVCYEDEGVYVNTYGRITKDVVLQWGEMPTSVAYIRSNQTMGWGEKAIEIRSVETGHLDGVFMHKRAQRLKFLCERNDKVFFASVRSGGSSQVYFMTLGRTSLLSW
Assay [3] concerns the target T1, Serine/threonine-protein kinase Nek1 (Homo sapiens) (UniProt Q96PY6).
T1 sequence (whole entry): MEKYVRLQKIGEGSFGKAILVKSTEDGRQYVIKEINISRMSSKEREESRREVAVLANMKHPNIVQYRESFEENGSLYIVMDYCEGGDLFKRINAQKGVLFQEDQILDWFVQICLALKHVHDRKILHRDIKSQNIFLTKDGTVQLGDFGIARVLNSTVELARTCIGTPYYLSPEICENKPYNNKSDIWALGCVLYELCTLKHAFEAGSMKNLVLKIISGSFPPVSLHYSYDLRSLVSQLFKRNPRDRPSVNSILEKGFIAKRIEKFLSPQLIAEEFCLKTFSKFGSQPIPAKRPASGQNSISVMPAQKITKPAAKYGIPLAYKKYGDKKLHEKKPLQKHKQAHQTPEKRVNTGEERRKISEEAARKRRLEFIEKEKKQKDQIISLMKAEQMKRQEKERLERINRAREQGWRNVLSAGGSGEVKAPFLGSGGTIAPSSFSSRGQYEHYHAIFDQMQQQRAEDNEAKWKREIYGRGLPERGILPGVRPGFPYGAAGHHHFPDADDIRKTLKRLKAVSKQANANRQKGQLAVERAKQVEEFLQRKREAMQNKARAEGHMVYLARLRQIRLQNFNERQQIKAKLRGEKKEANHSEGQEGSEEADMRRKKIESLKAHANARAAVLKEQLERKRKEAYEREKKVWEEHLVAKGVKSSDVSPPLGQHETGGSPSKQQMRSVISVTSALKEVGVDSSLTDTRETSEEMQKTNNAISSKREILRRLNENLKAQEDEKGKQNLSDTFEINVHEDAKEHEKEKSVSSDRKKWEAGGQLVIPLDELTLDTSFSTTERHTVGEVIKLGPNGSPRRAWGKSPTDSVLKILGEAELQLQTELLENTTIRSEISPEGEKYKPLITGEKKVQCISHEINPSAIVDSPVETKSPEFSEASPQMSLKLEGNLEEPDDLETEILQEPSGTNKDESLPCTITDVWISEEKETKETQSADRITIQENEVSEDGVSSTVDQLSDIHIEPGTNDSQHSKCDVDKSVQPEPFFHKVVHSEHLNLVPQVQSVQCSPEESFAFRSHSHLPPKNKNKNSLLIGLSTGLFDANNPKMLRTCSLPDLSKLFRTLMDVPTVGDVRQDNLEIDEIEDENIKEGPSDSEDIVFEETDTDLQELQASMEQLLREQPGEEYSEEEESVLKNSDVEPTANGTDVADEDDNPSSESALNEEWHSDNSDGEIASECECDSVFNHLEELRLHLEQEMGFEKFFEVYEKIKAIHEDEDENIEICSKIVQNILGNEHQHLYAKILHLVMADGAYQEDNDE
In words: Residual activity of NEK1 at 0.1 uM by microplate scintillation counting.

For assay [4], the target named is Receptor-interacting serine/threonine-protein kinase 2 (Homo sapiens) (UniProt O43353). The experiment in a line: Residual activity of RIPK2 at 1 uM by microplate scintillation counting.
Chain of Receptor-interacting serine/threonine-protein kinase 2 (Homo sapiens) (O43353 whole entry): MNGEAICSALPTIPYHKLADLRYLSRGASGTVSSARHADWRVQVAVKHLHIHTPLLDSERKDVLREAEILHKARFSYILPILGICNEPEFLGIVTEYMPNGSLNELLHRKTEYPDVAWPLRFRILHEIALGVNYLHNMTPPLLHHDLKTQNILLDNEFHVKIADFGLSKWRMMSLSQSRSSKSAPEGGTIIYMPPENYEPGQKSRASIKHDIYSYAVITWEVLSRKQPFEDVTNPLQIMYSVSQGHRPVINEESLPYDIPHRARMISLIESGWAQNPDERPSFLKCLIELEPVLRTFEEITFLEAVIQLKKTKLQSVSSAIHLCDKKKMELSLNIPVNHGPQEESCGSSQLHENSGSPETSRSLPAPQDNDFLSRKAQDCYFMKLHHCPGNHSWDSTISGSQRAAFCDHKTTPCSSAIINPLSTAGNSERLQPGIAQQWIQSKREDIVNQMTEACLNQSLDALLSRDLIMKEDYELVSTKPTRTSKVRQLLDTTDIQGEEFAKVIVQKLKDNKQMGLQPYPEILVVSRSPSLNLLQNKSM
For assay [5], the target named is T2, Cytoplasmic tyrosine-protein kinase BMX (Homo sapiens) (UniProt P51813).
T2 sequence (whole entry): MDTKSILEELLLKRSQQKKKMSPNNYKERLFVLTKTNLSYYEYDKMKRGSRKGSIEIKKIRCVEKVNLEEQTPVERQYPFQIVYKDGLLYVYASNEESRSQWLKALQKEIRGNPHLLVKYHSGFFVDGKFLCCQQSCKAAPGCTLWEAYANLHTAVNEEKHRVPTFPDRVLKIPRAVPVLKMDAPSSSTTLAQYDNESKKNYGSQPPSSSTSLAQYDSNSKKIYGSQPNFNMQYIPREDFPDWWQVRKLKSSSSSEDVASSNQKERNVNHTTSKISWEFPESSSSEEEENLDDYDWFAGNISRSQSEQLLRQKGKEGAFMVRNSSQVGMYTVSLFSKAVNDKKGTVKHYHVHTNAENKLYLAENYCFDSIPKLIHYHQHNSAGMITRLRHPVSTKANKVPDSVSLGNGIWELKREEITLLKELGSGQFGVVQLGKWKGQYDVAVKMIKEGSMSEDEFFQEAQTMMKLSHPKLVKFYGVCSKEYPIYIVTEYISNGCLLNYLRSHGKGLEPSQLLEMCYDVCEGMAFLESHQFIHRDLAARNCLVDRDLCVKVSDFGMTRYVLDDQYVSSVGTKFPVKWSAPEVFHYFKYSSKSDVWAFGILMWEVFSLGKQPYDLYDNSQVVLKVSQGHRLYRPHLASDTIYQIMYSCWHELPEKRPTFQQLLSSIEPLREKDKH
In words: Residual activity of BMX at 10 uM by microplate scintillation counting.

Assay [6] deals with Serine/threonine-protein kinase Nek7 (Homo sapiens) (UniProt Q8TDX7). The experiment in a line: Residual activity of NEK7 at 10 uM by microplate scintillation counting.
Chain of Serine/threonine-protein kinase Nek7 (Homo sapiens) (Q8TDX7 whole entry, looked up): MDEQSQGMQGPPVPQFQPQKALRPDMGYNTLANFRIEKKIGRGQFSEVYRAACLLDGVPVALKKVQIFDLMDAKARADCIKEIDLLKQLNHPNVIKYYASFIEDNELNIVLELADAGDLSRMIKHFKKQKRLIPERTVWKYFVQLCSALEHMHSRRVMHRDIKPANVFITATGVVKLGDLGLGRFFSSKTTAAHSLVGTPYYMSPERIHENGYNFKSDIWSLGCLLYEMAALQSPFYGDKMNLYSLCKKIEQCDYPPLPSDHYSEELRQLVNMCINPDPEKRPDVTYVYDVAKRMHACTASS
Assay [7] concerns the target T3, Aurora kinase C (Homo sapiens) (UniProt Q9UQB9).
T3 sequence (whole entry): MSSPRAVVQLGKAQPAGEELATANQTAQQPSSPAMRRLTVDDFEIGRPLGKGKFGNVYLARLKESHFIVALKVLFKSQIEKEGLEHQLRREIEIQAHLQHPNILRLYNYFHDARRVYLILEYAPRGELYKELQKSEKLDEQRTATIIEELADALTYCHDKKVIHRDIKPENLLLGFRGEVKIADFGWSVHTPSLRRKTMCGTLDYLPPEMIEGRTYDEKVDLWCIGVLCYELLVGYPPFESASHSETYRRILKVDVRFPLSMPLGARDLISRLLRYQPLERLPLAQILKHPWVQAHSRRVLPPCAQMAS
In words: Residual activity of Aurora-C at 0.1 uM by microplate scintillation counting.

Assay [8] concerns the target Protein kinase C alpha type (Homo sapiens) (UniProt P17252). In words: Residual activity of PKCalpha at 0.1 uM by microplate scintillation counting.
Another assay addresses Angiopoietin-1 receptor (Homo sapiens, UniProt Q02763). The experiment in a line: Residual activity of TIE2 at 10 uM by microplate scintillation counting.

Structures are written as SMILES.

Chain of Tyrosine-protein kinase Fes/Fps (Homo sapiens) (P07332 whole entry): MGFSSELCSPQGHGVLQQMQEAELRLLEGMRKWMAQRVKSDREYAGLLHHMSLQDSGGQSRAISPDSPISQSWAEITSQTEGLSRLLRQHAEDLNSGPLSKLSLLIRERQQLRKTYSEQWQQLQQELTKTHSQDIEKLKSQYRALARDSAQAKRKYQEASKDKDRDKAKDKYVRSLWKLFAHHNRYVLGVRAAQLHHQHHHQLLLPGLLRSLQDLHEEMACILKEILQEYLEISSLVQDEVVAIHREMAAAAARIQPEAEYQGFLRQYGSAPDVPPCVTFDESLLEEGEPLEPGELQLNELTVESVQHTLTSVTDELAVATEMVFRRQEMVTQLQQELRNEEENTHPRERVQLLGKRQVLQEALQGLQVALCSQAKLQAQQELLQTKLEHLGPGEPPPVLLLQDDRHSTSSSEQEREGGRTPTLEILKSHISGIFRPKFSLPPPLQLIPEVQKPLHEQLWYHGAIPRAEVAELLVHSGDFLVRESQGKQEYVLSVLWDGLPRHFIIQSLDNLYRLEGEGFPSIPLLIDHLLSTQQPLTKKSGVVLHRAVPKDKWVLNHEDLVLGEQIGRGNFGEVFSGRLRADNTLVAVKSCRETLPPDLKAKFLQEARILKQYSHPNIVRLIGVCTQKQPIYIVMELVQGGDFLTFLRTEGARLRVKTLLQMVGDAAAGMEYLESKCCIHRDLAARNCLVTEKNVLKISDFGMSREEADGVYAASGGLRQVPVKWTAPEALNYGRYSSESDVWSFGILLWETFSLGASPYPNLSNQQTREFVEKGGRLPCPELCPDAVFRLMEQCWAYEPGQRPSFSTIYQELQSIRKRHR
Chain of Angiopoietin-1 receptor (Q02763 whole entry): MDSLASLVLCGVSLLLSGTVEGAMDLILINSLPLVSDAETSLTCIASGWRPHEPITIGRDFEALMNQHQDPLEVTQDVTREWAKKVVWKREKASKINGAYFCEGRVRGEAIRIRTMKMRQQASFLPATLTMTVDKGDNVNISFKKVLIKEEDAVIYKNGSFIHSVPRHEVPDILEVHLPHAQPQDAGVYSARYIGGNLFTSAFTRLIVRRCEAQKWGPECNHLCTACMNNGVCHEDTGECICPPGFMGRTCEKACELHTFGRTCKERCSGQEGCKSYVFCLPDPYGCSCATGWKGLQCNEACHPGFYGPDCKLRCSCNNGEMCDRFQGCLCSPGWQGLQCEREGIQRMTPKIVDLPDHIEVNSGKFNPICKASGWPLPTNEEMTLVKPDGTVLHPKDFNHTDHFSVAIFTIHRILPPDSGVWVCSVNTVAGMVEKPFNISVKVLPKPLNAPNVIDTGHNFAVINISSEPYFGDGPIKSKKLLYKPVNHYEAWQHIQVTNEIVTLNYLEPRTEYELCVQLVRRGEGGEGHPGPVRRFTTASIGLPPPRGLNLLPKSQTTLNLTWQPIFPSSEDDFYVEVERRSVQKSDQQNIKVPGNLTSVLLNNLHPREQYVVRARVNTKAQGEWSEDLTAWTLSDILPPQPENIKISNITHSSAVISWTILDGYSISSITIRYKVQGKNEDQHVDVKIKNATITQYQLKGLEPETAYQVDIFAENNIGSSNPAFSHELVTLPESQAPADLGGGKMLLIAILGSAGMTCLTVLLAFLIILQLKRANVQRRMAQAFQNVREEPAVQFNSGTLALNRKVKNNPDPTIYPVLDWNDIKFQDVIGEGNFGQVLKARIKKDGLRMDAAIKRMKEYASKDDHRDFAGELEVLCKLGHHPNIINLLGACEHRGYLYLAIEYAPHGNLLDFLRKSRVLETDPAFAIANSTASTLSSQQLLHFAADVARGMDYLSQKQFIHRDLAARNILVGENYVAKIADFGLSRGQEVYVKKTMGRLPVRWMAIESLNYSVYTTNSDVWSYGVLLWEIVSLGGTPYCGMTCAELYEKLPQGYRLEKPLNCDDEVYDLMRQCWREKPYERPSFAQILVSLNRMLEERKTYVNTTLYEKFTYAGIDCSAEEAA

On to `COc1cc2c(Oc3ccc(-c4nc5ccccc5s4)cc3)ncnc2cc1OCCCN1CCCC1`, for which the residual activity in assay [1] was 107%; in assay [2], 88%; in assay [3], 98%; in assay [4] it was 29%; in assay [5] it was 138%; in assay [6], 224%. In addition, the residual activity worked out at 42% in assay [7], 137% in [8] and 4% on Angiopoietin-1 receptor.
`COc1cc2c(Oc3ccc(-c4nc5ccccc5s4)cc3F)ncnc2cc1OCCCN1CCN(C)CC1`: the residual activity was determined as 101% in assay [1]; 97% in assay [2]; 93% in [3]; 29% in [4]; 44% in [5]; 239% in assay [6]. Moreover, the residual activity stood at 48% in assay [7], 100% in assay [8] and 4% at Angiopoietin-1 receptor.
As for `COc1cc2c(Oc3ccc(-c4nc5ccccc5s4)cc3)ncnc2cc1OCCCN1CCN(C)CC1`, the residual activity came out at 102% in assay [1]; 81% in assay [2]; 87% in assay [3]; 25% in assay [4]; 156% in assay [5]; 254% in assay [6]. Further, the values for the residual activity (in [7]; in assay [8]; at Angiopoietin-1 receptor) were 42%, 108% and 3%, respectively.
